One series is described as follows: Biorelevant solubility. In kind it is physicochemical. The settings on record: 37 °C, biorelevant media pH 6.5 (3 mM taurocholate, 0.75 mM phospholipids), mean ± SD, n = 3. The method, then:
The media utilized in this experiment were composed of 2 mM Tris-maleate, 150 mM NaCl, and 1.06 mM CaCl2. The pH of the media was adjusted to pH 6.5. The media were supplemented with FaSSIF powder a day prior to the experiment, resulting in a composition of the final biorelevant media of 3 mM taurocholate and 0.75 mM phospholipids. This final solution will be referred to as the “biorelevant media” throughout this paper. The biorelevant media was left at room temperature at least 2 h prior to usage. […] The suspensions were placed in an oven at 37 °C and were stirred at 200 rpm. Samples were taken at time points of 3, 6, and 24 h and centrifuged at 21,380g (Mikro 200 R, Hettich GmbH, Germany) for 30 min at 37 °C. The resulting supernatant was transferred to a new sample tube and centrifuged again under identical conditions. Samples were diluted 1:10 (v/v) with the mobile phase before analysis. The samples were analyzed using an Agilent 1200 series HPLC system (Agilent Technology Inc., United States) via HPLC, as described above.

Series [1] in a line: Equilibrium solubility studies in lipid excipients / LBFs. In kind it is physicochemical. The settings on record: 37 °C, venetoclax free base equivalents. The method, then: Samples were stirred at 200 rpm (Mixdrive 15 2MAG, Germany) at 37 °C. Samples were withdrawn after 24, 48, and 72 h, followed by centrifugation at 21,000g (Mikro 200R Andreas Hettich GmbH & Co. KG, Germany) for 30 min. The supernatant was extracted and centrifuged again under identical conditions. The resulting supernatant was solubilized 1:10 v/v in a mixture of acetonitrile and ethyl acetate (1:4 v/v), followed by a further 1:10 v/v dilution in acetonitrile and ethyl acetate (4:1 v/v). Samples were analyzed by HPLC as per the method above. All samples were analyzed in triplicate.

The nature of series [2]: Saturation during in vitro testing (saturation ratio). The following applies: all cases: medium- and long-chain LBFs, after dispersion and digestion. In kind it is physicochemical. The method, then:
The degree of saturation of drug concentrations in the aqueous phase during the in vitro lipolysis experiment was measured by comparing the measured aqueous phase concentration to the equilibrium drug solubility in samples containing dispersed and digested nondrug loaded formulations under identical conditions. Excess drug or lipophilic salt was added to 2 mL samples of the blank aqueous phase and stirred at 37 °C for 24 h. Samples were withdrawn, centrifuged, and analyzed under conditions identical to those in Section 2.2.9. […] Saturation ratios were evaluated at the end of the dispersion phase and the end of the digestion phase.

Series [3] is described as follows: In vitro lipolysis (dispersion and digestion) of LBFs. Format: physicochemical. The method, then:
The LBFs were assayed using the in vitro lipolysis method[25] to assess the potential for formulations containing dissolved lipophilic salt to maintain the drug in a solubilized state as the formulation is dispersed and digested under simulated gastrointestinal conditions. Formulations utilized in this experiment were loaded at 80% equilibrium solubility as per Section 2.2.6, at drug doses outlined in Table 3.
The in vitro lipolysis experiments were performed using a pH stat apparatus (Metrohm AG, Herisau, Switzerland) comprising an 836 Titando, an 804 Ti Stand, a pH electrode (Metrohm), and two 800 Dosino 20 mL dosing units. The system was operated by Tiamo 2.5 software (Metrohm). The biorelevant medium described in Section 2.2.8 was used for this experiment. The pancreatin extract (8× USP) was reconstituted immediately prior to use by adding 5 mL of the biorelevant medium to 1 g of pancreatin, vortexed thoroughly, and centrifuged at 4000g for 15 min at 4 °C (Centrifuge 5702 R, Eppendorf, Germany); 4 mL of the resulting supernatant was recovered and immediately stored on ice before further usage. […] The amount of NaOH dispensed was recorded by the system and used to assess the rate and extent of digestion. […] As the formulation is a type III-A formulation, ultracentrifugation was not required as the lipids should readily disperse within the biorelevant medium.[25] […]

The conditions of series [4]: cited from earlier work.

Molecules are shown by their SMILES. Values after ≈ are worked out from the molar mass of the structure shown.

Turning to `CC1(C)CCC(CN2CCN(c3ccc(C(=O)NS(=O)(=O)c4ccc(NCC5CCOCC5)c([N+](=O)[O-])c4)c(Oc4cnc5[nH]ccc5c4)c3)CC2)=C(c2ccc(Cl)cc2)C1.CCCCCCCCS(=O)(=O)O` [venetoclax octanesulfonate], in the series “Biorelevant solubility”, the biorelevant solubility stood at 7.4 ± 0.7 µg/mL.

`CC1(C)CCC(CN2CCN(c3ccc(C(=O)NS(=O)(=O)c4ccc(NCC5CCOCC5)c([N+](=O)[O-])c4)c(Oc4cnc5[nH]ccc5c4)c3)CC2)=C(c2ccc(Cl)cc2)C1.CCCCC(CC)COC(=O)CC(C(=O)OCC(CC)CCCC)S(=O)(=O)O` [venetoclax docusate] had a biorelevant solubility in “Biorelevant solubility” of 16.2 ± 1.6 µg/mL. Besides, in series [1], the “apparent equilibrium solubility in long-chain LBF” value is reported as greater than 25 mg/g and the “apparent equilibrium solubility in medium-chain LBF” value is greater than 50 mg/g. Moreover, in series [2], the saturation ratio is reported as less than 10.3.

As to `CC1(C)CCC(CN2CCN(c3ccc(C(=O)NS(=O)(=O)c4ccc(NCC5CCOCC5)c([N+](=O)[O-])c4)c(Oc4cnc5[nH]ccc5c4)c3)CC2)=C(c2ccc(Cl)cc2)C1.CCCCCCCCCCCCS(=O)(=O)O` [venetoclax dodecanesulfonate], in “Biorelevant solubility”, the biorelevant solubility was 9.8 ± 1.4 µg/mL. In addition, in series [1], the “apparent equilibrium solubility in long-chain LBF” value is listed as greater than 25 mg/g and the “apparent equilibrium solubility in medium-chain LBF” value was greater than 50 mg/g.

For orientation: solubility means the concentration that dissolves in the medium under given conditions. The low end stands for a poorly soluble substance, the high end for a readily soluble substance. Regarding `CC1(C)CCC(CN2CCN(c3ccc(C(=O)NS(=O)(=O)c4ccc(NCC5CCOCC5)c([N+](=O)[O-])c4)c(Oc4cnc5[nH]ccc5c4)c3)CC2)=C(c2ccc(Cl)cc2)C1` [venetoclax], in “Biorelevant solubility” (biorelevant media (FaSSIF-supplemented Tris-maleate buffer), fassif, thermodynamic from solid), the concentration in solution (solubility) was 5.5 ± 1 µg/mL (≈ 6.33 µM). The “concentration of venetoclax in the aqueous phase” value in series [3] (LBFs loaded with free base, dispersion and digestion) was less than 50 µg/mL. In addition, in series [3] (medium- and long-chain formulations), the dose precipitated entry was “greater than 80%”. Moreover, the “solubility in medium- and long-chain triglycerides” value in series [4] is less than 1000 µg/mL.

Regarding `CC1(C)CCC(CN2CCN(c3ccc(C(=O)NS(=O)(=O)c4ccc(NCC5CCOCC5)c([N+](=O)[O-])c4)c(Oc4cnc5[nH]ccc5c4)c3)CC2)=C(c2ccc(Cl)cc2)C1.CCCCCCCCOS(=O)(=O)O` [venetoclax octyl sulfate], the biorelevant solubility in the series “Biorelevant solubility” came out at 7.7 ± 0.6 µg/mL.

With `CC1(C)CCC(CN2CCN(c3ccc(C(=O)NS(=O)(=O)c4ccc(NCC5CCOCC5)c([N+](=O)[O-])c4)c(Oc4cnc5[nH]ccc5c4)c3)CC2)=C(c2ccc(Cl)cc2)C1.CCCCCCCCCCCCCCCCCCOS(=O)(=O)O` [venetoclax octadecyl sulfate], the biorelevant solubility in the series “Biorelevant solubility” came out at 8.4 ± 0.7 µg/mL.

For `CC1(C)CCC(CN2CCN(c3ccc(C(=O)NS(=O)(=O)c4ccc(NCC5CCOCC5)c([N+](=O)[O-])c4)c(Oc4cnc5[nH]ccc5c4)c3)CC2)=C(c2ccc(Cl)cc2)C1.CCCCCCCCCCOS(=O)(=O)O` [venetoclax decyl sulfate], the biorelevant solubility in the series “Biorelevant solubility” was determined as 10.3 ± 0.8 µg/mL.
